Test results as given in the METLIN SMRT retention time set (Domingo-Almenara et al. 2019).

Assay: gradient 5% acetonitrile 3 min, to 50% in 2 min, to 85% in 15 min, held 3 min, 100 µL/min
Conditions: column: Zorbax Extend-C18 2.1 x 50 mm; eluents: water / acetonitrile, 0.1% formic acid
How it was run: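 Using water and acetonitrile that each contained 0.1% formic acid, mixtures of ~100 pure standards were separated at 100 μL/min on a Zorbax Extend-C18 column (2.1 × 50 mm, 1.8 μm). The HPLC fed a quadrupole time-of-flight mass spectrometer working in positive and negative ionization mode, with dead and dwell volumes of 40 μL and 900 μL. Data were acquired over 3 months. Retention time was read from computationally picked adduct peaks after manual inspection of each.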

| SMILES | RP-LC retention time [s] |
| --- | --- |
| CCc1csc(-c2ccc(N3CCN(C(=O)c4ccc(C#N)cc4F)CC3)nc2)n1 | 929 |
| Cc1nnc(-c2ccc(OCC(=O)N(C(C)C)C(C)C)cc2)o1 | 708 |
| COc1cc(NC(=O)C2CCCN(c3cc(=O)n(C)c(=O)n3C)C2)cc(OC)c1 (centres undefined) | 708 |
| Cc1noc([C@@H]2CC(F)(F)CN2C(=O)CCc2c(C)noc2C)n1 | 718 |
| Cc1ccccc1Nc1c(-c2ccc(Cl)cc2)nc2ccc(Cl)cn12 | 1050 |
| O=C(CCSc1ccccc1)NCCOc1ccc2nnc(-c3ccccc3)n2n1 | 736 |
| Cc1cccc(NC(=O)N2CCC3(CC2)NC(=O)c2ccccc2O3)c1 | 723 |
| CCN1CCn2cc(S(=O)(=O)Nc3ccc(OC)c(Cl)c3)cc2C1=O | 730 |
| O=c1c2scc(-c3cccc(F)c3)c2ncn1Cc1cccc(Br)c1 | 1180 |
| COc1cc(Nc2ncc(F)c(Nc3ccc4c(n3)N(COP(=O)(O)O)C(=O)C(C)(C)O4)n2)cc(OC)c1OC | 653 |
| CCCNC(=O)N1CCCC(c2nn[nH]n2)C1 (centres undefined) | 590 |
| Nc1nc(Nc2ccccc2)n[nH]1 | 637 |
| Cc1nc(Nc2ccc(F)cn2)sc1C(=O)NCc1ccc(F)cc1 | 832 |
| CCc1nccn1Cc1noc(-c2ccc(Cl)cc2)n1 | 668 |
| Cn1nc(C(=O)N2CCCCC2)c2c1CCN(C(=O)CCC(=O)NCCN1CCCCC1)C2 | 586 |
| Cc1ccc(CNC(=O)c2cc3n(n2)CC(C)(C(=O)NCCC(C)C)N(C)C3=O)cc1 (centres undefined) | 802 |
| Fc1ccc(OCc2nnc3sc(-c4ccccc4F)nn23)cc1 | 940 |
| O=C(c1ccc(C(F)(F)F)cc1)N1CCN(c2nnc3ccccn23)CC1 | 698 |
| Cc1ccccc1Nc1c(-c2cccc(O)c2)nc2cccc(C)n12 | 678 |
| COc1ccccc1-c1noc(Cn2c(=O)n(-c3cccc(F)c3)c(=O)c3sccc32)n1 | 880 |
| CCn1nc(C)c2ccn(CC(=O)NCc3cc(F)cc(F)c3)c(=O)c21 | 757 |

| SMILES | RP-LC retention time [s] |
| --- | --- |
| COc1ccc(N2CCN(C(=O)c3cc4c(s3)CN(C3CCCC3)C4)CC2)cc1 | 623 |
| CN(CC1CCOCC1)C(=O)c1ccc(Br)cc1 | 761 |
| O=C(Cc1scnc1-c1cccs1)N1CCN(c2ccccn2)CC1 | 596 |
| Cc1cccc(Cl)c1NC(=O)Cn1ncc2c(N3CCN(c4ccccn4)CC3)ncnc21 | 593 |
| CSc1ccc(CNC(=O)Cc2nnc(-c3cccc(F)c3)o2)cc1 | 794 |
| COc1ccc(Cl)cc1NC(=O)Cn1c2c(c(=O)n(C3CCCCC3)c1=O)CCC2 | 997 |
| CCOc1ccccc1NC(=O)N1CCN(c2cc(C)nc(N3CCCC3)n2)CC1 | 692 |
| O=[N+]([O-])c1cn2c(n1)OC[C@@H](OCc1ccc(OC(F)(F)F)cc1)C2 | 916 |
| COCCn1ccc2nc(C)c(C(=O)Nc3cccc(SC)c3)cc2c1=O | 746 |
| Cc1ccc(N2N=NC3C(=O)N(c4cccc(Cl)c4)C(=O)C32)cc1F (centres undefined) | 1060 |
| O=C(CN1C(=O)NC(c2ccccc2Cl)C2=C1COC2=O)NCc1ccccc1Cl (centres undefined) | 801 |
| CCc1nnc([C@@H]2CC(F)(F)CN2C(=O)c2cc(C)no2)o1 | 686 |
| COCCc1noc(C2Cc3ccccc3N2C(=O)Nc2cc(C)cc(C)c2)n1 (centres undefined) | 968 |
| CCc1ccc(S(=O)(=O)c2cnc(N3CCN(c4cccc(C)c4)CC3)nc2N)cc1 | 1220 |
| O=C(CCc1ccccc1)N1CCC(c2noc(-c3cnccn3)n2)C1 (centres undefined) | 735 |
| Cc1ccnc(N2CCC(C(=O)N3CCC(C(N)=O)(N4CCCCC4)CC3)CC2)n1 | 547 |
| COC(=O)c1c(NCC(C)C)c2cc(F)ccc2[nH]c1=O | 734 |
| CC1CCN(C(=O)C2=NN(C)c3ccccc3S2(=O)=O)CC1 | 799 |
| Cc1cc(Br)ccc1NC(=O)C1CCCN(c2ncnc3c2nc2n3CCCCC2)C1 (centres undefined) | 895 |
| Cc1ccc(C2=NC3(CCN(C(=O)COc4ccc(Cl)cc4)CC3)ON2)cc1 | 935 |
| CSc1ccc(CCNC(=O)c2ccc(CN3CC(=O)N4CCCCC4C3=O)cc2)cc1 (centres undefined) | 738 |

| SMILES | RP-LC retention time [s] |
| --- | --- |
| COc1ccc(C2C(C(=O)NCCCN3CCOCC3)c3cc(OC)c(OC)cc3C(=O)N2C)cc1 (centres undefined) | 612 |
| Cc1ccccc1Nc1c(-c2ccccc2O)nc2ccc(Br)cn12 | 1050 |
| COc1cccc(C(=O)NC(c2ccccc2)c2nnc(N3CCCC3)o2)c1 (centres undefined) | 788 |
| COc1ccc(C(=O)N2CCCC2c2nc(-c3ccccc3)n[nH]2)cc1 (centres undefined) | 707 |
| CC1=C(c2ccc(Cl)cc2)S(=O)(=O)N=C1N1CCCN(C(=O)C(C)C)CC1 | 822 |
| COCCNC(=O)C1COc2ccc(NC(=O)c3ccc(Br)cc3)cc2C1 (centres undefined) | 774 |
| COCCNc1nc(-c2ccc(OC)cc2)nc2ccccc12 | 644 |
| CCOc1ccc(CNC(=O)Cc2csc3nc(-c4ccc(C)c(C)c4)cn23)cc1 | 847 |
| CC(C)(C)c1ccc(-c2noc(-c3nn(-c4cccc(F)c4)ccc3=O)n2)cc1 | 1140 |
| Cn1nc(-c2nnc(-c3ccccc3F)o2)c2c1CCN(S(=O)(=O)c1ccc(C#N)cc1)C2 | 894 |
| O=C(O)CSc1nnc(-c2ccc(Cl)cc2Cl)n1Cc1ccccc1 | 771 |
| CC(C)n1c(=O)sc2cc(S(=O)(=O)N3CCC(C(=O)NC4CCCCC4)CC3)ccc21 | 935 |
| CCOC(=O)c1c(C)oc2nc(C)nc(NCC3CCN(Cc4ccc(F)cc4)CC3)c12 | 712 |
| CC(CCNc1ccc(-c2nc(-c3cccc(F)c3)no2)cn1)N1CCCCCC1 (centres undefined) | 782 |
| Cc1ccc(Cl)cc1NC(=O)C1CCCN1S(=O)(=O)c1cc2c(cc1C)NC(=O)C(C)O2 (centres undefined) | 892 |
| O=C(Cn1nc(S(=O)(=O)c2cccc(F)c2)ccc1=O)N1CCN(c2ccc(F)cc2)CC1 | 882 |
| O=C(C1CC(=O)N(C2CCCCC2)C1)N1CCCCCC1 (centres undefined) | 763 |
| CCn1c(=O)c(NCc2cccc(Cl)c2)nc2ccncc21 | 649 |
| COC(=O)C1=CN(c2ccccc2)c2cc(F)ccc2S1(=O)=O | 787 |
| CCn1nnc2c(N3CCN(S(=O)(=O)c4cccc(C(F)(F)F)c4)CC3)ncnc21 | 894 |

The next lines start with the values.

| RP-LC retention time [s] | SMILES |
| --- | --- |
| 617 | CN(C)CCCn1cc2c(c1-c1cccc(Br)c1)c(=O)n(C)c(=O)n2C |
| 646 | CCOC(=O)C1CCN(c2nc(=O)[nH]c3ccccc23)CC1 |
| 755 | O=C(CCNc1c(-c2cccc(F)c2)nc2cnccn12)NCc1ccc(F)cc1 |
| 840 | CS(=O)(=O)N(C1CCOCC1)C1CCN(C(=O)c2ccc(Cl)cc2)CC1 |
| 841 | COC(=O)c1cc(S(=O)(=O)N2CCCC2C(=O)Nc2ccc(C#N)cc2)cn1C (centres undefined) |
| 1020 | O=C(Nc1ccc(F)c(F)c1)C1CCCN(C(=O)Cc2cccc3ccccc23)C1 (centres undefined) |
| 631 | O=C(NCc1cccs1)c1ccnc(N2CCNC(c3ccccc3)C2)c1 (centres undefined) |
| 587 | NC(=O)c1c(NC(=O)C2COc3ccccc3O2)sc2c1CCN(Cc1ccccc1)C2 (centres undefined) |
| 834 | CC1CCCN(c2ccn3c(=O)n(CC(=O)Nc4ccc(F)c(Cl)c4)nc3n2)C1 (centres undefined) |
| 874 | CCOc1ccc2nc(NC(=O)Cc3csc4nc(-c5ccccc5)cn34)sc2c1 |
| 865 | CN(CC#N)C(=O)c1cc2c(Cl)ccc3c2n1CCO3 |
| 1080 | Cc1cc(C)cc(Oc2nccn3c(=O)n(CC(=O)Nc4cccc(C(C)C)c4)nc23)c1 |
| 711 | O=C(O)c1nnn(-c2ccc3c(c2)CCC3)c1-c1cccnc1 |
| 898 | COc1ccccc1CCNC(=O)Cn1cc(S(=O)(=O)c2ccccc2)c2ccccc21 |
| 1270 | CCCCCCC(=O)Nc1nc(-c2ccc(Cl)cc2)cs1 |
| 513 | CCOC(=O)CNc1ncnc2nc[nH]c12 |
| 791 | O=C(c1n[nH]c2ccccc12)N1CCCn2nc(-c3cccs3)cc2C1 |
| 1040 | CCOC(=O)c1cc(S(=O)(=O)N2CCCC2C(=O)Nc2nc3ccc(C)cc3s2)cn1C (centres undefined) |
| 692 | Cc1cccc(C)c1NC(=O)N(C)CC1CCOCC1 |
| 857 | COc1cccc(-c2nc(N3CCSCC3)ncc2C(=O)O)c1 |
| 920 | Cc1cccc(S(=O)(=O)N2C[C@@H]3CN(S(=O)(=O)c4c(C)noc4C)C[C@H](C2)O3)c1 |
| 814 | O=C(Cc1cccs1)Nc1nnc(SCc2nnc(-c3ccc4c(c3)OCO4)o2)s1 |
| 735 | CN1c2cc(F)ccc2C(=O)NC12CCN(C(=O)Nc1ccccc1F)CC2 |
| 773 | C=CCNC(=O)N1CCCN(C2=NS(=O)(=O)C(c3cccc(Cl)c3)=C2C)CC1 |
| 822 | Cc1csc(-c2ccc(N3CCN(C(=O)c4cccc(F)c4)CC3)nc2)n1 |
| 694 | CC1(C)Cc2cccc(OCC(=O)NCCc3ccc(S(N)(=O)=O)cc3)c2O1 |
| 750 | CCC(=O)N1CCc2cc(N3CC(C(=O)Nc4ccccc4CC)CC3=O)ccc21 (centres undefined) |
